Structures can show the parent of a compound that is named as a salt.

Series [1] has as its system CXCR4. Conditions: ref [14],[17]; cited from earlier work.
Series [2] relates to BCR–ABL1-transformed mouse B cells. The series is described as follows: Real-time cell growth analysis by IncuCyte (GFP+ cell enrichment). The class given is cell-based. The note with it: 1, 5 and 10 µM, over 96 h; n = 4–5.
Description: A flat-bottom 96-well plate was coated with 0.01% poly-L ornithine (#P4957, Sigma-Aldrich, Hamburg, Germany) for 1 h at room temperature (RT). […] The cells were plated in 100 μL complete medium. […] Plate was prewarmed at 37 °C for 30 min prior to placing in the IncuCyte chamber. Scanning was conducted every two hours for total of 4 days.
For series [3], the system named is 697 cells. The series is described as follows: Real-time cell growth by IncuCyte, 697. The series is classed as cell-based, human. The note with it: 1 µM, 96 h; n = 3. As for the experimental part:
(§1) The cells were plated in 100 μL complete medium.

Series [4] has as its system TKO-EV cells (untransformed mouse BM pro-B cells). The series is described as follows: Real-time cell growth analysis by IncuCyte, untransformed TKO-EV cells. Conditions: 1 µM, 96 h; n = 3.
Description: A flat-bottom 96-well plate was coated with 0.01% poly-L ornithine (#P4957, Sigma-Aldrich, Hamburg, Germany) for 1 h at room temperature (RT). BCR–ABL1, SupB15, and 697 cells were counted as 0.5 × 10^5 cells/well, while TKO-BCR–ABL1 and TKO-EV cells as 1 × 10^5 cells/well, which were labeled with IncuCyte Cytotox Red dye (#4632, Sartorius, Ulm, Germany) as per the manufacturer’s protocol. The cells were plated in 100 μL complete medium. […] Plate was prewarmed at 37 °C for 30 min prior to placing in the IncuCyte chamber. Scanning was conducted every two hours for total of 4 days. Images were acquired using a 20X objective in phase contrast and fluorescence mode at 4 images/well and analyzed using the cell-by-cell analysis module of IncuCyte software version 2020B (Essen Bioscience, Ann Arbor, MI, USA).
Series [5] deals with SupB15 cells. The series is described as follows: Real-time cell growth by IncuCyte, SupB15. The series is classed as cell-based, human. Conditions: 1 µM, 96 h; n = 3. As for the experimental part:
as §1

For the molecule “IVRWSKKVPCVS [WSC02, optimized 12-mer EPI-X4 derivative]”, the CXCL12-induced calcium signaling entry in series [1] is recorded as “block CXCL12-induced calcium signaling”.
Regarding “IVRWSKK * (Pal)VPCVS [JM#169, fatty-acid-conjugated optimized EPI-X4 derivative]”, the “GFP enrichment (BCR–ABL1 cell growth) vs DMSO” value in series [2] was “significant reduction in cell growth only after 72 h”. Also, the CXCL12-induced calcium signaling entry in series [1] is given as “block CXCL12-induced calcium signaling”.
For the molecule “ILRWSRK * (Glu-Pal)-NH2 [JM#192, fatty-acid-conjugated optimized EPI-X4 derivative]”, the CXCL12-induced calcium signaling entry in series [1] is reported as “block CXCL12-induced calcium signaling”.
With ILRWSRKLPCVS [JM#21], the CXCL12-induced calcium signaling entry in series [1] is recorded as “block CXCL12-induced calcium signaling”.
For `Cc1ccc(NC(=O)c2ccc(CN3CCN(C)CC3)cc2)cc1Nc1nccc(-c2cccnc2)n1` [Imatinib, Imatinib mesylate, reference compound], in series [3], the “697 cell growth vs DMSO” value is “no effect on the 697 cells”. Also, the “Survival/growth of TKO-EV cells” value in series [4] is reported as “no effect on the TKO-EV cells”. In addition, the “SupB15 cell growth vs DMSO” value in series [5] is listed as “significantly reduced SupB15 cell growth”.
Consider “ILRWSRK * (Glu-Pal)LPCVS [JM#143, fatty-acid-conjugated optimized EPI-X4 derivative]”, for which the CXCL12-induced calcium signaling result in series [1] is “block CXCL12-induced calcium signaling”.

(Values after paper PMC11312813, “An Optimized Peptide Antagonist of CXCR4 Limits Survival of BCR–ABL1-Transformed Cells in Philadelphia-Chromosome-Positive B-Cell Acute Lymphoblastic Leukemia” (International Journal of Molecular Sciences, 2024).)
